Assay results reported in ChEMBL document CHEMBL1201862, “PubChem BioAssay data set” (2004).
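Values below derive from 48-hour exposures of cells grown in 96-well plates, with endpoints linearly interpolated between the two concentrations bracketing the appropriate inhibition level. GI50 is the concentration that inhibits growth by half.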 Active and inactive are the calls of the source. Rule as the data show it: active = GI50 up to about 1.1 µM and inactive = higher.

How the values were obtained:
Assay in all cases: NCI tumour cell line growth inhibition, 48 h
HOP-62 = test system: HOP-62
K562 = test system: K562
HCT-15 = test system: HCT-15
NCI-H226 = test system: NCI-H226
SF-295 = test system: SF-295
UO-31 = test system: UO-31
SK-MEL-2 = test system: SK-MEL-2
DU-145 = test system: DU-145
786-0 = test system: 786-0
COLO 205 = test system: COLO 205
CAKI-1 = test system: CAKI-1
HL-60 = test system: HL-60
HOP-92 = test system: HOP-92
NCI-H460 = test system: NCI-H460
Malme-3M = test system: Malme-3M
UACC-62 = test system: UACC-62
SNB-75 = test system: SNB-75
LOX IMVI = test system: LOX IMVI
SW-620 = test system: SW-620

| Compound | GI50 (HOP-62) | GI50 (K562) | GI50 (HCT-15) [µM] | GI50 (NCI-H226) | GI50 (SF-295) | GI50 (UO-31) | GI50 (SK-MEL-2) | GI50 (DU-145) | GI50 (786-0) | GI50 (COLO 205) | GI50 (CAKI-1) | GI50 (HL-60) | GI50 (HOP-92) | GI50 (NCI-H460) | GI50 (Malme-3M) | GI50 (UACC-62) | GI50 (SNB-75) | GI50 (LOX IMVI) | GI50 (SW-620) |
| --- | --- | --- | --- | --- | --- | --- | --- | --- | --- | --- | --- | --- | --- | --- | --- | --- | --- | --- | --- |
| CCOC(=O)/C(C(=O)c1ccc([N+](=O)[O-])cc1)=C(\NS(=O)(=O)c1cc(C)c(Cl)cc1[S-])[n+]1ccc(N(C)C)cc1 | 29.4 µM (inactive) | 32.1 µM (inactive) | 34 | 51.8 µM (inactive) | 16.7 µM (inactive) | 35.3 µM (inactive) | 3.83 µM (inactive) | 31 µM (inactive) | 30.3 µM (inactive) | 29.9 µM (inactive) | 35.1 µM (inactive) | 30.1 µM (inactive) | 3.27 µM (inactive) | 34.9 µM (inactive) | 14.4 µM (inactive) | 49.3 µM (inactive) | – | – | – |
| C[C@]12CC[C@H](OCCC#N)CC1=CC[C@@H]1C2CC[C@]2(C)/C(=N/OCCC#N)CCC12 (some centres undefined) | > 69.2 µM (inactive) | > 22.4 µM (inactive) | > 100 | > 100 µM (inactive) | 17.2 µM (inactive) | > 100 µM (inactive) | > 50.2 µM (inactive) | – | 33 µM (inactive) | > 100 µM (inactive) | 26.1 µM (inactive) | 2.48 µM (inactive) | 14.3 µM (inactive) | 97.7 µM (inactive) | 30.1 µM (inactive) | 21.9 µM (inactive) | 28.1 µM (inactive) | 5.7 µM (inactive) | > 100 µM (inactive) |
| N#CC(c1cc(Cl)ncn1)c1nc2ccccc2s1 (centres undefined) | 14.1 µM (inactive) | 4.93 µM (inactive) | 3.74 | 25.8 µM (inactive) | 15.6 µM (inactive) | 16.6 µM (inactive) | – | 5.56 µM (inactive) | 3.77 µM (inactive) | 14.8 µM (inactive) | 18.6 µM (inactive) | – | 3.57 µM (inactive) | 4.27 µM (inactive) | 10.8 µM (inactive) | – | 13.6 µM (inactive) | 4.72 µM (inactive) | 4.62 µM (inactive) |
| COCCOCC(=O)N(CCn1ccc(NC(c2ccccc2)(c2ccccc2)c2ccccc2)nc1=O)CCn1cnc2nc(N)[nH]c(=O)c21 | > 100 µM (inactive) | > 100 µM (inactive) | > 100 | > 100 µM (inactive) | > 100 µM (inactive) | > 100 µM (inactive) | > 100 µM (inactive) | – | > 100 µM (inactive) | > 100 µM (inactive) | > 100 µM (inactive) | > 100 µM (inactive) | > 100 µM (inactive) | > 100 µM (inactive) | > 100 µM (inactive) | > 100 µM (inactive) | > 100 µM (inactive) | > 100 µM (inactive) | > 100 µM (inactive) |
| CC1(C)C(O)OC(O)C1(C)C (centres undefined) | > 100 µM (inactive) | 57.9 µM (inactive) | 28.1 | 18.1 µM (inactive) | > 100 µM (inactive) | 57.3 µM (inactive) | 89.7 µM (inactive) | – | 93.1 µM (inactive) | > 100 µM (inactive) | > 100 µM (inactive) | 42.9 µM (inactive) | > 100 µM (inactive) | > 100 µM (inactive) | > 100 µM (inactive) | 91 µM (inactive) | 35.2 µM (inactive) | 46.9 µM (inactive) | 49.7 µM (inactive) |
| CC1(C)C(O)C[C@@H](O)[C@@]2(C)C1CC[C@]1(C)C2C[C@@H](O)[C@@H]2C([C@@]3(C)CC[C@@H](C(C)(C)O)O3)CCC21C (some centres undefined) | 16.6 µM (inactive) | 35.2 µM (inactive) | 12.6 | 19.5 µM (inactive) | 15.7 µM (inactive) | 17.5 µM (inactive) | 14.7 µM (inactive) | – | 15.3 µM (inactive) | 16.4 µM (inactive) | 18.3 µM (inactive) | 14.2 µM (inactive) | 9.68 µM (inactive) | 18.9 µM (inactive) | 13.4 µM (inactive) | 9.93 µM (inactive) | 15 µM (inactive) | 11 µM (inactive) | 16.5 µM (inactive) |
